Like-named read-outs stand apart in the source and are kept apart here.
How the values were obtained:
P. falciparum = settings: Table 3 section B, high throughput screen [27, 28], cited from earlier work
[1] = tested on: chloroquine-resistant strain K1 of P. falciparum; experiment: P. falciparum growth inhibition in culture, strain K1; assay type: cell-based, Plasmodium falciparum
[2] = tested on: chloroquine-sensitive strain 3D7 of P. falciparum; experiment: P. falciparum growth inhibition in culture, strain 3D7; assay type: cell-based, Plasmodium falciparum; settings: for result of the 16 tested inhibitors in words (binding): summary of Table 5
[3] = Table 3 section A, mean of at least two measurements, read-out: ED50 in K1
[4] = Table 5, read-out: ED50 (μM) in K1
[5] = Table 3 section A, mean of at least two measurements, read-out: ED50 in 3D7
[6] = Table 5, P. falciparum ED50 in 3D7 and K1
[7] = Table 5, read-out: ED50 (μM) in 3D7
[8] = Plasmodium falciparum, K1, Table 3 section A, mean of at least two measurements, read-out: ED50 in K1
[9] = Plasmodium falciparum, K1, Table 5, read-out: ED50 (μM) in K1
[10] = Plasmodium falciparum, 3D7, Table 3 section A, mean of at least two measurements, read-out: ED50 in 3D7
[11] = Plasmodium falciparum, 3D7, Table 5, read-out: ED50 (μM) in 3D7

| Compound | EC50 [1, 3] [µM] | EC50 [1, 4] [µM] | EC50 [2, 5] [µM] | experimentally determined to work [2, 6] | EC50 [2, 7] [µM] | other results |
| --- | --- | --- | --- | --- | --- | --- |
| COc1ccc(CCN2CCC(Nc3nc4ccccc4n3Cc3ccc(F)cc3)CC2)cc1 [Astemizole] |  |  |  |  |  | % Inhibition at 10 μM in (P. falciparum; 10 μM): 97.6% |
| CC1(C)S[C@@H]2[C@H](NC(=O)[C@H](NC(=O)N3CCNC3=O)c3ccccc3)C(=O)N2[C@H]1C(=O)O [Azlocillin] |  |  |  |  |  | EC50 (P. falciparum; read-out: ED50 in 3D7): 1.5 µM |
| CN1CCCC1CCn1cc(C2=C(c3c[nH]c4ccccc34)C(=O)NC2=O)c2ccccc21 (stereo not drawn) [Bisindolylmaleimide II] | 1 to 10 | 1 to 10 | 1 to 10 | N | 1 to 10 |  |
| Cl.Cn1cc(C2=C(c3c4n(c5ccccc35)CCC(CN)C4)C(=O)NC2=O)c2ccccc21 (stereo not drawn) [Bisindolylmaleimide X] | 1 to 10 | 1 to 10 | 1 to 10 | N | 1 to 10 |  |
| Oc1ccc(Cc2nc3c(Cc4ccccc4)nc(-c4ccc(O)cc4)cn3c2O)cc1 [Coelenterazine] |  |  |  | N |  | EC50 [1, 8]: 1 to 10 µM; EC50 [1, 9]: 1 to 10 µM; EC50 [2, 10]: 10 to 40 µM; EC50 [2, 11]: 10 to 40 µM |
| CN([C@@H](Cc1ccc(OS(=O)(=O)c2cccc3cnccc23)cc1)C(=O)N1CCN(c2ccccc2)CC1)S(=O)(=O)c1cccc2cnccc12 [KN62] | < 1 | < 1 | 0.69 | Y (Y—yes (<=1uM ED50)) | 0.69 | result of the 16 tested inhibitors in words (binding) [2]: very strong binding |
| O=C1c2ccc3c4ccc5c6c(ccc(c7ccc(c2c37)C(=O)N1CCN1CCCCC1)c64)C(=O)N(CCN1CCCCC1)C5=O [PIPER] | 10 to 40 | 10 to 40 | 10 to 40 | N | 10 to 40 |  |
| C=CC1=C(C)c2cc3[nH]c(cc4nc(cc5[nH]c(cc1n2)c(C)c5CCC(=O)O)C(CCC(=O)O)=C4C)c(C)c3C=C [Protoporphrin, Protoporphyrin IX] |  |  |  | N |  | EC50 [1, 8]: 10 to 40 µM; EC50 [1, 9]: 10 to 40 µM; EC50 [2, 10]: 10 to 40 µM; EC50 [2, 11]: 10 to 40 µM |
| Cc1c(C(=O)c2cccc3ccccc23)c2cccc3c2n1[C@H](CN1CCOCC1)CO3 [R-(+)-WIN55212-2] | 10 to 40 | 10 to 40 | 10 to 40 |  | 10 to 40 | experimentally determined to work [2]: N |
| CC[C@H](CO)Nc1nc(NCc2ccccc2)c2ncn(C(C)C)c2n1 [Roscovitine] |  |  |  | N |  |  |
| Cc1ccc(NC(=O)c2ccc(CN3CCN(C)CC3)cc2)cc1Nc1nccc(-c2cccnc2)n1 [STI-571, Imatinib] |  |  |  |  |  | result of the 16 tested inhibitors in words (binding) [2]: moderate binding |
| O=CN1CCN(c2ccc(/C=C3\C(=O)Nc4ccccc43)cc2)CC1 [SU4984] |  |  | > 40 | N |  |  |
| Cc1c[nH]c(/C=C2\C(=O)Nc3ccccc32)c1CCC(=O)O [SU5402] |  |  | > 40 | N |  |  |
| Cc1cc(C)c(/C=C2\C(=O)Nc3ccc(Cl)cc32)[nH]1 [SU5614] |  |  |  | N |  |  |
| O=C(O)CCC(=O)Nc1ccc(S(=O)(=O)Nc2nccs2)cc1 [Succinylsulfathiazole] |  |  |  | N |  | EC50 [1, 8]: > 40 µM; EC50 [1, 9]: > 40 µM; EC50 [2, 10]: > 40 µM; EC50 [2, 11]: > 40 µM |
| O=C(O)c1cc(/N=N/c2ccc(S(=O)(=O)Nc3ccccn3)cc2)ccc1O [Sulfasalazine] |  |  |  | N |  | EC50 [1, 8]: > 40 µM; EC50 [1, 9]: > 40 µM; EC50 [2, 10]: > 40 µM; EC50 [2, 11]: > 40 µM |
| C[C@]12C=CC(=O)C=C1CC[C@@H]1C2=CC[C@]2(C)[C@@H](C(=O)CN3CCN(c4cc(N5CCCC5)nc(N5CCCC5)n4)CC3)CC[C@@H]12.O=C(O)/C=C\C(=O)O [U-74389G] | < 1 | < 1 | 0.83 | Y (Y—yes (<=1uM ED50)) | 0.825 | result of the 16 tested inhibitors in words (binding) [2]: very strong binding |
| Bisindolylmaleimide VII | 1 to 10 | 1 to 10 | 1 to 10 | N | 1 to 10 |  |
